According to ChEMBL document CHEMBL1201862, “PubChem BioAssay data set” (2004):
The source made the active and inactive calls.

What was measured:
[1] = target: Voltage-gated inwardly rectifying potassium channel KCNH2 (Homo sapiens, UniProt Q12809); conditions: Potency;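 further: confirmatory quantitative high-throughput screen measuring inhibition of hERG channel activity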
[2] = target: T1, Microphthalmia-associated transcription factor (Homo sapiens, UniProt O75030); assay: TRPM1 promoter luciferase signal decrease, dose response, MITF inhibitor project, cell-based, SK-MEL-5, cherry-picked, set 3 (AID 493073); assay type: functional
T1 sequence (O75030 whole entry): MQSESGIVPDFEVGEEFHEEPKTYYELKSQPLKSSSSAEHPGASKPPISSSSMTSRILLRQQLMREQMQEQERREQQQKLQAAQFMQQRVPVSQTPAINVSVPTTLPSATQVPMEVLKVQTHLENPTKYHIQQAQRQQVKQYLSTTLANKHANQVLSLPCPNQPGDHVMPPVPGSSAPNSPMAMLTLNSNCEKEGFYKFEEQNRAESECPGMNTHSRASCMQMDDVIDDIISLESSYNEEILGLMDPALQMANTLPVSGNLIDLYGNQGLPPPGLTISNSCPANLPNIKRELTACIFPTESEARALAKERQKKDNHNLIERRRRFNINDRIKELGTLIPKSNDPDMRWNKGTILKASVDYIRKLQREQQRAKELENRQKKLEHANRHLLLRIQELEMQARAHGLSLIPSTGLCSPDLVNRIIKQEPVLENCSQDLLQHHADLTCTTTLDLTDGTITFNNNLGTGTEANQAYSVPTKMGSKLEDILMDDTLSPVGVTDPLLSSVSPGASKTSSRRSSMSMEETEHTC

[3] = Fluorescence-based cell-based high throughput dose response assay for inhibitors of the interaction of nucleotide-binding oligomerization domain containing 2 (NOD2) and the receptor-interacting serine-threonine kinase 2 (RIPK2).; assay type: functional; conditions: Homo sapiens
[4] = system: HEK293; assay: cells; conditions: Homo sapiens
[5] = system: HEK293; assay: cells; conditions: Homo sapiens; remark: listed apart in the source
[6] = target: Paired box protein Pax-8 (Homo sapiens, UniProt Q06710); assay: inhibitors of PAX8-driven TPO luciferase reporter, dose response, RMG-I cells, cherry-pick (AID 687027); assay type: functional, cell-based;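 further: luciferase reporter driven by Pax8 target thyroperoxidase promoter measured by SteadyGlo luminescence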
[7] = target: DNA topoisomerase (Yersinia pestis, UniProt A0A2S9PM60); assay: Y. pestis Topo-I inhibitors, cleavage product readout, dose response, biochemical, cherry-pick (AID 588525)
[8] = system: Vero; assay: cells; assay type: functional; conditions: Chlorocebus sabaeus
[9] = inhibitors of intracellular T. cruzi replication, confirmation, NIH3T3 host cells, beta-gal luminescence (AID 2044); assay type: functional, cell-based;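 further: intracellular parasites grown in NIH/3T3 mouse fibroblasts as host cells; luminescent beta-galactosidase reporter signal from transgenic T. cruzi replicating inside host cells; inhibitors lower the luminescence signal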
[10] = system: Vero; assay: cells; assay type: functional, cell-based; conditions: Chlorocebus sabaeus
[11] = cytotoxicity toward NIH3T3 fibroblasts, dose response, counter-screen, cell-based, ATP luminescence, mouse fibroblasts (AID 2010); assay type: functional;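 further: cells exposed to compound for about 90 hours before reading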
[12] = inhibitors of SNCA 5'UTR-driven reporter translation, confirmation, H4 neuroglioma cells, luminescence (AID 1988); assay type: functional, cell-based
[13] = Luminescence Cell-Based Dose Response HTS to Identify Inhibitors of 5'UTR Stem-Loop Driven Prion Protein mRNA Translation in H4 Neuroglioblastoma Cells. [Related pubchem assays: 1827 (Project Summary), 1813 (Primary HTS)]; assay type: functional
[14] = system: H9c2; assay: cells; assay type: functional, cell-based; conditions: Rattus norvegicus, H9c2, Myocardium;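 further: confirmatory concentration-response retest of ultra-high-throughput screening hits for modulation of myocardial damage; cell death induced by hydrogen peroxide oxidative stress; compound pretreatment for 60 min then peroxide exposure for 2 h; potency is for protecting the cells against peroxide damage rather than for killing them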
[15] = inhibitors of firefly luciferase expression or activity, dose response, H4 neuroglioma cells, luminescence (AID 1990); assay type: functional, cell-based
[16] = target: T2, Polyadenylate-binding protein 1 (Homo sapiens, UniProt P11940); assay: PABP1 MLLE–PAM2 binding inhibitor potency, dose response, biochemical, fluorescence polarization, FITC-PAM2 peptide (AID 602259); assay type: functional; conditions: read-out: IC50_Mean
[17] = target: Dual specificity tyrosine-phosphorylation-regulated kinase 1A (Rattus norvegicus, UniProt Q63470); assay type: biochemical, Homo sapiens
[18] = target: Large T antigen (Simian virus 40, UniProt P03070); assay type: functional, Betapolyomavirus macacae;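 further: Confirmatory-stage PubChem screen for compounds that inhibit SV40 T antigen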
[19] = target: T2, Polyadenylate-binding protein 1; assay: PABP1 MLLE–PAM2 interaction inhibitors, dose response, miRNA deadenylation inhibitor project, biochemical, fluorescence polarization, Cy5-PAM2 peptide, secondary (AID 602260); assay type: functional; conditions: read-out: IC50_Mean
[20] = target: Heat shock protein HSP 90-alpha (Homo sapiens, UniProt P07900); assay type: functional, organism-based
[21] = system: A-375; assay: A375 melanoma cell viability reduction, dose response, counter-screen for MITF modulator project, cherry-pick samples, set 2 (AID 540335); assay type: functional, cell-based; conditions: Homo sapiens
[22] = system: A-375; assay: MITF: Counter assay: A375 proliferation Measured in Cell-Based System Using Plate Reader - 2084-03_Inhibitor_Dose_DryPowder_Activity. [Related pubchem assays (depositor defined):AID488944]; assay type: functional; conditions: Homo sapiens
[23] = system: BJ; assay: cells; assay type: functional, cell-based; conditions: Homo sapiens
[24] = system: BJ; assay: cytotoxicity toward BJ-TERT fibroblasts, dose response, cell-based, RAS-independent, luminescence (AID 1933); assay type: functional; conditions: Homo sapiens
[25] = A Cell Based Secondary Assay To Explore Cytotoxicity of Compounds that Sensitize Mycobacterium Tuberculosis to Beta-Lactam Antibiotics.; assay type: functional
[26] = cytotoxicity toward DRD oncogenic fibroblasts, dose response, cell-based, non-viral oncogenic, luminescence (AID 1934); assay type: functional; conditions: Homo sapiens
[27] = system: BJ; assay: cytotoxicity toward BJ-TERT-LT-ST fibroblasts, dose response, cell-based, RAS-independent, luminescence (AID 1935); assay type: functional; conditions: Homo sapiens;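 further: BJ fibroblasts immortalized with TERT plus LT and ST oncogenes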
[28] = target: T3, Ubiquitin-conjugating enzyme E2 N (Homo sapiens, UniProt P61088); assay type: functional;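 further: Dose-response confirmation in a TR-FRET assay detecting UBC13-driven polyubiquitin chain formation, inhibition measured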
T3 sequence (P61088 whole entry): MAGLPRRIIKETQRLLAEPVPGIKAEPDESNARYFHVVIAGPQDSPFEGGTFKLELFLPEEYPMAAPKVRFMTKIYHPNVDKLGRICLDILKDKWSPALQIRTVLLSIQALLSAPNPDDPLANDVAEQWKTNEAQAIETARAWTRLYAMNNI

[29] = target: Trypsin (Sus scrofa, UniProt P00761); assay: porcine trypsin inhibitors, dose response, selectivity assay for Rce1 protease inhibitor project, biochemical, quenched peptide fluorescence, cherry-pick (AID 488789)
[30] = target: CAAX prenyl protease 2 (Saccharomyces cerevisiae S288c, UniProt Q03530); assay type: biochemical
[31] = target: CAAX prenyl protease 2 (Homo sapiens, UniProt Q9Y256); assay: human Rce1 protease inhibitors, dose response, biochemical, yeast membranes, quenched-peptide fluorescence, cherry-pick (AID 588849)
[32] = Luminescence Cell-Based Dose Retest to Confirm Inhibitors of Cancer Stem Cells. [Related pubchem assays (depositor defined):AID2717, AID2721]; assay type: functional; conditions: Homo sapiens
[33] = HepG2 cell cytotoxicity, dose response, cytotoxicity control for Shn3 inhibitor project, CellTiter-Glo, cherry-picked (AID 624134); assay type: functional, cell-based
[34] = system: Jurkat; assay: antigen receptor-induced NF-kB inhibitors, dose response, Jurkat, luciferase reporter, luminescence, B- and T-cell (AID 489004); assay type: functional, cell-based; conditions: Homo sapiens;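 further: NF-kB luciferase reporter Jurkat cells stimulated with PMA plus ionomycin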
[35] = control 3'UTR Renilla luciferase suppression, dose response, counter-screen for Shn3 inhibitor project, cell-based, Clone20-Shn3RL, cherry-picked (AID 624133); assay type: functional
[36] = cytotoxicity in HEK-293T NF-kB-Luc cells, dose response, cytotoxicity control for B/T-cell NF-kB inhibitor project, cell-based, uHTS hits (AID 489019); assay type: functional;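 further: IC50 reflects cytotoxicity as loss of cell viability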
[37] = Shn3 3'UTR reporter inhibitors, dose response, cell-based, Clone20 osteoblasts, firefly luciferase, cherry-picked (AID 624132); assay type: functional;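 further: firefly luciferase luminescence from reporter carrying the Shn3 3'UTR in osteoblasts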
[38] = system: INS1; assay: beta cell apoptosis inhibitors, cytokine rescue, dose response, luminescence, retest (AID 449756); assay type: functional, cell-based; conditions: Rattus norvegicus;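 further: cell death triggered by IL-1 beta plus TNF-alpha plus IFN-gamma mixture; protective hits raise ATP signal compared with cytokine alone wells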
[39] = system: Jurkat; assay: SAR Analysis of small molecule inhibitors of T-cell specific antigen receptor-induced NF-kB activation in a Jurkat cell line using a luminescence assay - Set 2. [Related pubchem assays (depositor defined):AID435003, AID435012, AID465]; assay type: functional, cell-based; conditions: Homo sapiens
[40] = system: HEK293; assay: SAR Analysis of small molecule inhibitors of T-cell specific antigen receptor-induced NF-kB activation in a HEK-293T cell line using a luminescence assay - Set 2. [Related pubchem assays (depositor defined):AID435003, AID435012, AID489026]; assay type: functional, cell-based; conditions: Homo sapiens
[41] = system: HEK293; assay: cytotoxicity in HEK293T NF-kB-Luc cells, SAR follow-up, cytotoxicity control for NF-kB activator project, cell-based, resazurin fluorescence (AID 493251); assay type: functional; conditions: Homo sapiens
[42] = target: Glucose-6-phosphate 1-dehydrogenase (Homo sapiens, UniProt P11413); assay: human G6PD enzyme inhibitors, dose response, selectivity assay for P. falciparum G6PD inhibitor project, biochemical, fluorescence (AID 504792); assay type: functional

Sequence of DNA topoisomerase (A0A2S9PM60 whole entry): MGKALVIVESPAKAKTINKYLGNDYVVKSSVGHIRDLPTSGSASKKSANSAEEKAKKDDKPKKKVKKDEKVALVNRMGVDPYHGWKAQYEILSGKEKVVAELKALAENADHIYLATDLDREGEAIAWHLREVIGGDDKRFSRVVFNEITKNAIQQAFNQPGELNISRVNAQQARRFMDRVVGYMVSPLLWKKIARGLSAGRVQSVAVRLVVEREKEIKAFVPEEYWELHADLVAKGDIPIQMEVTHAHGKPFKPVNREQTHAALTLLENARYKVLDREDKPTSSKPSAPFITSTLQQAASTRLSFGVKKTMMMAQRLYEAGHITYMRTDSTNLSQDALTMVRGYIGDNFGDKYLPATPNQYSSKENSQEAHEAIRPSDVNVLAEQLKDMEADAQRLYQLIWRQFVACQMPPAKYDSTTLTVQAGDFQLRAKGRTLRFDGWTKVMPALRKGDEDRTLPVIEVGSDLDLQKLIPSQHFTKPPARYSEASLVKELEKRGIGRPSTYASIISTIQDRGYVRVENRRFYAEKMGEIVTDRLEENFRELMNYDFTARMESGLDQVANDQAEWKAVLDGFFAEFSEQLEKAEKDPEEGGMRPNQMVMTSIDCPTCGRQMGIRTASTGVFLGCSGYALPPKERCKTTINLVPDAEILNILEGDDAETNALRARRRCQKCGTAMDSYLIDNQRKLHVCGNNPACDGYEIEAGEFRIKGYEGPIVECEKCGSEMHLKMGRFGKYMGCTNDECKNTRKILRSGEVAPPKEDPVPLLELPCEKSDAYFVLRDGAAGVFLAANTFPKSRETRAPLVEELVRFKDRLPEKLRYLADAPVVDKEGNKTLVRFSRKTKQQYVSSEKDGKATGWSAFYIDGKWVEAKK
Sequence of CAAX prenyl protease 2 (Homo sapiens, UniProt Q9Y256) (Q9Y256 whole entry): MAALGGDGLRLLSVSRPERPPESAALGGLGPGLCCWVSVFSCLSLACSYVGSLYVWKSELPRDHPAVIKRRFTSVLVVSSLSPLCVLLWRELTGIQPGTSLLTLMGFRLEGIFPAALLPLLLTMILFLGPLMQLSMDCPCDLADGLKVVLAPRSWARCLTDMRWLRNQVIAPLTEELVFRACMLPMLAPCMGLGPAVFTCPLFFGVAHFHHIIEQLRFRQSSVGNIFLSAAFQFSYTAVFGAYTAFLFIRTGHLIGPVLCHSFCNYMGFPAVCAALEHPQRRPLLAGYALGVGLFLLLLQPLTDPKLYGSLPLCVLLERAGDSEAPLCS
Sequence of Voltage-gated inwardly rectifying potassium channel KCNH2 (Q12809 whole entry): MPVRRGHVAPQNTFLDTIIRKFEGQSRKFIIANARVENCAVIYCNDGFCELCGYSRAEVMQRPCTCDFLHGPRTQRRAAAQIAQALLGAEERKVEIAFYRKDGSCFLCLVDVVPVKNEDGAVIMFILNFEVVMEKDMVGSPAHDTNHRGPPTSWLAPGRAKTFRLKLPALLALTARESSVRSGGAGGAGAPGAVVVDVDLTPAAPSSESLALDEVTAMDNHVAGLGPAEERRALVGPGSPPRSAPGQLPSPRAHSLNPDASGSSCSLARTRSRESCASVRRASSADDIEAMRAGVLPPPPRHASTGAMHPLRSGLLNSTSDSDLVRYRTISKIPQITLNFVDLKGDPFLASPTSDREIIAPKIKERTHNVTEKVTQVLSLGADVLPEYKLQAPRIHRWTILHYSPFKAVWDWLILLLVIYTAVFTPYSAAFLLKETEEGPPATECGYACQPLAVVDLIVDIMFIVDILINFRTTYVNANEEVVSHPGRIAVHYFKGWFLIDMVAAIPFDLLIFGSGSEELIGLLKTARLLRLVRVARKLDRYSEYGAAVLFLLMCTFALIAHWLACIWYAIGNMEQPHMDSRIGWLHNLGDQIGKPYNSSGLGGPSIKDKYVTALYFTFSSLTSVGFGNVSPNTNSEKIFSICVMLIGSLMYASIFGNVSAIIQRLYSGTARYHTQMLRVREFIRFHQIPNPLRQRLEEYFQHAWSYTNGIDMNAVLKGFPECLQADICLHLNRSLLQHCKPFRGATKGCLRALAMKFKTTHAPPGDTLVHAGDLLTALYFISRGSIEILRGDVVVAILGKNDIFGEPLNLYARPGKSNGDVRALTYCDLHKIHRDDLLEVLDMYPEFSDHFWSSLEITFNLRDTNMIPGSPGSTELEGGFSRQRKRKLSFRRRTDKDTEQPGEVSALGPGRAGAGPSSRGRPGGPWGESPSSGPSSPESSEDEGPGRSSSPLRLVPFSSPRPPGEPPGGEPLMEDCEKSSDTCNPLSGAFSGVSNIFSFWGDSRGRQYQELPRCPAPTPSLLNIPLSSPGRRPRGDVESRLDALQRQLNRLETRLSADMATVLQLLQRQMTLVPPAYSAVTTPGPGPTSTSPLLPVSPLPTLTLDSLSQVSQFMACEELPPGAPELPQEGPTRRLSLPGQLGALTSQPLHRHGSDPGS
T2 sequence (P11940 whole entry): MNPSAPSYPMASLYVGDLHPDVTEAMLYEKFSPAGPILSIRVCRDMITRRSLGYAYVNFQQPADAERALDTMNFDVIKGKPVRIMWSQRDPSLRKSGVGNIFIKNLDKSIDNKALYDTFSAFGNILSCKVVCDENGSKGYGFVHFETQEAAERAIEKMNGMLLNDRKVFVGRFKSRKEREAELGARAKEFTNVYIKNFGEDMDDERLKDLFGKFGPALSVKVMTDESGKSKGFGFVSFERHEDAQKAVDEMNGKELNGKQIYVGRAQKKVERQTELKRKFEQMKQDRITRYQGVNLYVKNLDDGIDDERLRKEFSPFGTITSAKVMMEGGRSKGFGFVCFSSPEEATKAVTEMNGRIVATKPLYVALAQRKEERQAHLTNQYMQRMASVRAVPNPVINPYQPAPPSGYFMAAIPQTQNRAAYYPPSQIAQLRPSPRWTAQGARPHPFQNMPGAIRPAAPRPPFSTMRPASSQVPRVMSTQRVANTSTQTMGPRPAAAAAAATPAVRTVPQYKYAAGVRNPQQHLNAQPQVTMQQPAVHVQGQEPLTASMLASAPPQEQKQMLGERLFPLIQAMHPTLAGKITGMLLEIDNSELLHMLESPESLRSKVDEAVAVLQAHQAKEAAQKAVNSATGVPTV
Sequence of Trypsin (P00761 whole entry): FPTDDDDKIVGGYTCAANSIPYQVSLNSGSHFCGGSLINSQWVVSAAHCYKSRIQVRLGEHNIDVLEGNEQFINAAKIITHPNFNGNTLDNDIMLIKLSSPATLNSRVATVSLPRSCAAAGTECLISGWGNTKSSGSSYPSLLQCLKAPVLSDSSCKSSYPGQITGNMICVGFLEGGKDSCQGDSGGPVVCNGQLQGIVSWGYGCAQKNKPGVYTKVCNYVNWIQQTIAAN
Sequence of Paired box protein Pax-8 (Q06710 whole entry): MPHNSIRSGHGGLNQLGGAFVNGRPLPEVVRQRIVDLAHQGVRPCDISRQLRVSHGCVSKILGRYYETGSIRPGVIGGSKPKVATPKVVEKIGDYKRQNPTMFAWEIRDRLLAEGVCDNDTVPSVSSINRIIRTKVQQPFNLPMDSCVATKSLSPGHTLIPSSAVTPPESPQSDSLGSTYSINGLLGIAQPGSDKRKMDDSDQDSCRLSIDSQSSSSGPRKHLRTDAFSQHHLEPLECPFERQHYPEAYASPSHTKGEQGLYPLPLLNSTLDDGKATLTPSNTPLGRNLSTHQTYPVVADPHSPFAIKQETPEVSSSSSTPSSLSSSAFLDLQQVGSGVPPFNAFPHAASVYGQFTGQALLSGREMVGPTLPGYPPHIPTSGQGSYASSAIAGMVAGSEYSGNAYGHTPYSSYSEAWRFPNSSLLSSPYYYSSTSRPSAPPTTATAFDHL
Sequence of CAAX prenyl protease 2 (Saccharomyces cerevisiae S288c, UniProt Q03530) (Q03530 whole entry): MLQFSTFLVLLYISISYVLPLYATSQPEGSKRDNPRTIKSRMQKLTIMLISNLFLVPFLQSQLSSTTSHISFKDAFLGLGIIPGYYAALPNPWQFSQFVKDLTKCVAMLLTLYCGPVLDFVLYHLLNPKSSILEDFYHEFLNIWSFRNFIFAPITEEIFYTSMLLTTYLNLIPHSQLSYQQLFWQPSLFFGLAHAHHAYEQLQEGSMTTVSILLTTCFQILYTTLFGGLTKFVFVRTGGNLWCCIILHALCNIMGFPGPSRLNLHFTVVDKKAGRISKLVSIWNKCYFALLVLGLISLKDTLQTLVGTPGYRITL
Sequence of Large T antigen (P03070 whole entry): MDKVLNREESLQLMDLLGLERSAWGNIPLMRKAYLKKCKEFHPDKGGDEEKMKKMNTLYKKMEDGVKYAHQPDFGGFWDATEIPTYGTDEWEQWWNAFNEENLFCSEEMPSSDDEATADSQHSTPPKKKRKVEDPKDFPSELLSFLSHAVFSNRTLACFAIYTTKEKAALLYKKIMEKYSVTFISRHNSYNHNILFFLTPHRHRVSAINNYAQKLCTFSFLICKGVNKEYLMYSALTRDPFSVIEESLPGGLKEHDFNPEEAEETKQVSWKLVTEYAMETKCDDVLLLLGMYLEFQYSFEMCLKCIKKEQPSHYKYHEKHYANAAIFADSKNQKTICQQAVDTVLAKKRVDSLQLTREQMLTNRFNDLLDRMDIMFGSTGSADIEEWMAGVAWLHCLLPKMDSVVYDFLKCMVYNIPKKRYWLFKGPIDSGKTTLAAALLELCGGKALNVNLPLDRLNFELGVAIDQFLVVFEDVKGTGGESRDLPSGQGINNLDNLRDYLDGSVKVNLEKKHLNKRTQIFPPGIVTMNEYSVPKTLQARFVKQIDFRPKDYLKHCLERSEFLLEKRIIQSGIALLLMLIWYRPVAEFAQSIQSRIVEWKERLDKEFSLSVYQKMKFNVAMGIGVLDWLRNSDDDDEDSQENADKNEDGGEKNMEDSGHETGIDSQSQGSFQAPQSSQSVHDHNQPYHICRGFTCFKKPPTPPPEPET

Compound: Clc1ccc(C(c2ccccc2Cl)C(Cl)(Cl)Cl)cc1 (centres undefined)
- AC50 [1]: 8.91 µM (inconclusive)

Compound: O=C(Cn1ncc(Cl)c(Cl)c1=O)Nc1ccc2c(c1)OCO2
- AC50 [2]: 13.2 µM (active)
- IC50 [3]: 11.8 µM (inactive)
- EC50 [4]: > 59.6 µM (inactive)
- EC50 [5]: > 59.6 µM (inactive)
- AC50 [6]: 4.07 µM (active)

Compound: CCCOc1ccc(C(=O)Nc2ccc(S(=O)(=O)N3C[C@@H]4C[C@@H](C3)c3cccc(=O)n3C4)cc2)cc1
- AC50 [7]: 3.3 µM (active)

Compound: CC(Oc1cccc(Cl)c1)C(=O)Nc1nc(-c2ccccn2)cs1 (centres undefined)
- CC50 [8]: 15.8 µM (active)
- EC50 [9]: 0.822 µM (active)
- IC50 [10]: > 25 µM (active)
- EC50 [11]: 6.81 µM (active)
- EC50 [12]: 9.63 µM (active)
- EC50 [13]: 11.9 µM (active)
- IC50 [14]: > 79 µM (inactive)
- EC50 [15]: 10.4 µM (active)

Compound: N=C1C=CC(=C(c2ccc(N)cc2)c2ccc(N)cc2)C=C1
- AC50 [1]: 44.7 µM (inconclusive)

Compound: OC1=C2Sc3ccccc3N=C2CCC1
- IC50 [16]: 59 µM (inactive)
- AC50 [17]: 8.45 µM (active)
- IC50 [18]: 9.55 µM (active)
- IC50 [19]: 35.2 µM (inactive)

Compound: O=[N+]([O-])c1ccc(NC(c2ccccc2)c2ccc3cccnc3c2O)cc1 (centres undefined)
- CC50 [8]: 4.02 µM (active)
- IC50 [10]: > 25 µM (active)
- AC50 [20]: 3.92 µM (active)

Compound: NC(=NOC(=O)c1ccncc1)c1cccc([N+](=O)[O-])c1
- AC50 [21]: > 35 µM (active)
- AC50 [22]: > 35 µM (active)

Compound: COc1ccc2[nH]cc(C(=O)CCl)c2c1
- EC50 [23]: 7.02 µM (active)
- EC50 [24]: 4.61 µM (active)
- AC50 [2]: 5.65 µM (active)
- CC50 [25]: 5.65 µM (active)
- EC50 [26]: 8.64 µM (active)
- EC50 [27]: 7.84 µM (inconclusive)
- AC50 [21]: 45.9 µM (active)

Compound: COc1ccc(-c2cc(C(=O)NCCCN3CCCC3=O)c3ccccc3n2)cc1
- IC50 [28]: > 20 µM (inactive)
- AC50 [29]: 9.31 µM (active)
- AC50 [30]: 18 µM (active)
- AC50 [31]: 23.3 µM (active)

Compound: Cc1ccc(-c2nc(CN3CCCCC3)cc(CN3CCCCC3)c2O)cc1
- AC50 [31]: 10.1 µM (active)

Compound: Cc1sc2ncnc(N3CCN(CCOc4ccc(Cl)cc4)CC3)c2c1C
- EC50 [9]: 2.29 µM (active)
- AC50 [32]: 5.5 µM (active)
- AC50 [33]: 3.27 µM (active)
- EC50 [11]: > 30 µM (not active)
- IC50 [34]: 64.1 µM (inactive)
- AC50 [35]: 6.27 µM (active)
- IC50 [36]: > 80 µM (inactive)
- AC50 [37]: 1.35 µM (active)
- AC50 [38]: 2.74 µM (active)

Compound: CN1CCN(c2ccccc2NC(=O)c2ccc([N+](=O)[O-])o2)CC1
- IC50 [39]: 24.8 µM (inactive)
- IC50 [40]: 15.6 µM (active)
- AC50 [2]: 4.95 µM (active)
- IC50 [41]: 23.6 µM (inactive)

Compound: CC(C)Cc1cc(-c2ccco2)c(C#N)c(N)n1
- EC50 [4]: > 59.6 µM (inactive)
- EC50 [5]: > 59.6 µM (inactive)

Compound: CN(C)c1ccc2nc3ccc(=O)cc-3sc2c1
- AC50 [7]: 4.67 µM (active)
- IC50 [42]: > 80 µM (inactive)
